# Key:
# Test in all cases: cells
# KU812 cell line = type: functional, cell-based, Homo sapiens; conditions: Homo sapiens, KU812;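 further: growth inhibition of KU812 cells, read out with a cell viability assay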
# Description: SANGER: Inhibition of human KU812 cell growth in a cell viability assay.
# KYSE-150 cell line = type: functional, cell-based; conditions: Homo sapiens;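 further: growth inhibition of human KYSE-150 cells, read out with a cell viability assay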
# Description: SANGER: Inhibition of human KYSE-150 cell growth in a cell viability assay.
# KYSE-520 cell line = type: functional, cell-based; conditions: Homo sapiens;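 further: growth inhibition of human KYSE-520 cells, read out with a viability assay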
# Description: SANGER: Inhibition of human KYSE-520 cell growth in a cell viability assay.
# KYSE-70 cell line = type: functional, cell-based; conditions: Homo sapiens;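 further: cell viability assay read-out, with IC50 expressing suppression of KYSE-70 cell growth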
# Description: SANGER: Inhibition of human KYSE-70 cell growth in a cell viability assay.
# LCLC-103H cell line = type: functional, cell-based; conditions: Homo sapiens
# Description: SANGER: Inhibition of human LCLC-103H cell growth in a cell viability assay.
# LXF-289 cell line = type: functional, cell-based; conditions: Homo sapiens
# Description: SANGER: Inhibition of human LXF-289 cell growth in a cell viability assay.
# A253 cell line = type: functional, cell-based, Homo sapiens; conditions: Homo sapiens, A253;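 further: growth inhibition of A253 cells, read out with a cell viability assay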
# Description: SANGER: Inhibition of human A253 cell growth in a cell viability assay.
# COLO-800 = type: functional, cell-based, Homo sapiens; conditions: Homo sapiens, COLO-800;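 further: growth inhibition of COLO-800 cells, read out with a cell viability assay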
# Description: SANGER: Inhibition of human COLO-800 cell growth in a cell viability assay.
# MHH-ES-1 = type: functional, cell-based; conditions: Homo sapiens;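 further: cell growth inhibition measured by a cell viability assay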
# Description: SANGER: Inhibition of human MHH-ES-1 cell growth in a cell viability assay.
# NB69 = type: functional, cell-based, Homo sapiens; conditions: Homo sapiens, NB69;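 further: growth inhibition of NB69 cells, determined by a cell viability assay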
# Description: SANGER: Inhibition of human NB69 cell growth in a cell viability assay.
# NB12 = type: functional, cell-based; conditions: Homo sapiens;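 further: growth inhibition of human NB12 cells, read out by a cell viability assay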
# Description: SANGER: Inhibition of human NB12 cell growth in a cell viability assay.
smiles,measurement,setting,value
O=C(NOC[C@H](O)CO)c1ccc(F)c(F)c1Nc1ccc(I)cc1F [MIRDAMETINIB],IC50,KU812 cell line,203 nM
same,IC50,KYSE-150 cell line,727 nM
same,IC50,KYSE-520 cell line,236 nM
same,IC50,KYSE-70 cell line,> 2000 nM
same,IC50,LCLC-103H cell line,> 2000 nM
same,IC50,LXF-289 cell line,> 2000 nM
same,IC50,A253 cell line,1260 nM
CNCc1ccc(-c2[nH]c3cc(F)cc4c3c2CCNC4=O)cc1 [RUCAPARIB],IC50,COLO-800,632 nM
same,IC50,MHH-ES-1,501 nM
same,IC50,NB69,946 nM
O=C1/C(=C/c2cccs2)CC/C1=C\c1cccs1,IC50,NB12,1310 nM

# — ChEMBL document CHEMBL1201861, “Genomics of Drug Sensitity in Cancer screening data, Wellcome Trust Sanger Institute”
